Test results reported in patent publication US20180344725A1, “QUINOLONE CHALCONE COMPOUNDS AND USES THEREOF” (priority 2015, published 2018).

How the values were obtained:
[1] = system: MCF-7; test: SRB-based cytotoxicity assay; type: cell-based, human; settings: Homo sapiens, MCF7; MCF-7; SRB; Table 2
Experimental: (§1) For (anti)proliferation assays, 4,000-5,000 cells/well of the 96-well clustered dish were incubated for 16 hours, as described previously (Hu et al., 2008; Skehan et al., 1990). After 16 hours, culture medium was replaced with fresh medium containing different dilutions of test compounds dissolved in DMSO. Some wells were treated with 100 μl of 10% trichloroacetic acid (TCA) as a negative control and sham (medium with dimethyl sulfoxide; DMSO) treated cells were used as a positive control. After 72 hours post-incubation, medium was removed and cells were fixed with 10% TCA at 4° C. for 1 hour. TCA was removed and cells were washed with cold tap water, and plate was air-dried, followed by addition of 50 μl of 0.4% SRB staining solution to each well. After 30 minutes incubation, SRB staining solution was removed. Cells were washed with 1% acetic acid solution, and then washed with tap water to remove unbound staining solution, followed by air-drying. 200 μl of 10 mM (pH10.5) trizma base buffer was added to each well to solubilise macromolecules. SRB stained macromolecules were determined at a 540 nm wavelength using an automated plate reader (Synergy H4 Hybrid Multi-Mode Microplate Reader, BioTek, Winooski, Vt.). Cell growth (inhibition) was calculated by the following formula:
(§2) % cells proliferation=[(AT−CT)/(ST−CT)]×100
(§3) wherein AT=absorbance of treated cells, CT=absorbance of negative control cells, and ST=absorbance of sham treated cells. IC50 values were calculated from sigmoidal dose-response curves generated by two independent biological replicates, with quadruplicate in each set by using Graph Pad Prism v.5.04 software. […] The combinational index (CI) was calculated as described previously (Chou 2006). If the CI values were less than, equal to or more than 1, it indicates a synergistic, additive or antagonistic effect respectively (Chou 2006). CI values were determined from four independent experiments.

[2] = system: MDA-MB-231; test: SRB-based cytotoxicity assay; type: cell-based, human; settings: Homo sapiens; MDA-MB-231; SRB; Table 2
Experimental: as §1, §2, §3

[3] = system: MDA-MB-468; test: SRB-based cytotoxicity assay; type: cell-based, human; settings: Homo sapiens; MDA-MB-468; SRB; Table 2
Experimental: as §1, §2, §3

[4] = system: 184B5; test: SRB-based cytotoxicity assay; type: cell-based; settings: Homo sapiens; 184B5 non-cancer; SRB; Table 2
Experimental: as §1, §2, §3

[5] = system: K562; test: SRB-based cytotoxicity assay; type: cell-based; settings: Homo sapiens, Table 2
Experimental: as §1, §2, §3

[6] = system: MDA-MB-231 human metastatic breast cancer cells; test: Anti-tumor activity in xenograft mice; type: in vivo; settings: Tax 10 mg/kg I.V. once/week, CTR 30 mg/kg I.P. every 3 days, or Tax 5 + CTR 15 mg/kg once/week
Experimental: Five-week old female CD-1 and ATH490 (strain code 490) athymic nude mice were purchased from Charles River (Quebec, Canada). The MDA-MB-231 human metastatic breast cancer cells were obtained from the American Tissue Culture Collection (ATCC, Manassas, Va., USA). Cells were maintained under humidified conditions at 37° C. and 5% CO2 in DMEM high glucose medium (ATCC) supplemented with 10% fetal bovine serum and antibiotics.
For paclitaxel treatments, 40 mg/ml stock solution of paclitaxel (Sigma, MO) was prepared in DMSO. Just before administration to mice, the paclitaxel stock solution was diluted ten-fold in a buffer containing 10% DMSO, 12.5% Cremophor, 12.5% ethanol, and 65% saline-based diluent (0.9% sodium chloride, 5% polyethylene glycol, and 0.5% tween-80) which is defined as vehicle (Huang et al., 2006). Alanine transaminase (ALT, SUP6001-c)/Aspartate transaminase (AST, SUP6002-c) color endpoint assay kits were purchased from ID Labs Biotechnology (London, Ontario, Canada). Elevation of ALT and AST levels in serum samples was used as an indicator of liver damage/injury.
To determine the anti-tumor activity of CTR compounds in animals, a xenograft model of human breast cancer cells in athymic nude mice was established. Exponentially growing MDA-MB-231 metastatic breast cancer cells were harvested and counted for inoculation into mice. Each mouse was subcutaneously injected at the flank with 10×10^6 cells in 0.2 ml ice cold 1×PBS. When tumor size reached 4-5 mm in diameter (n=4-5 per group), mice were randomly assigned into several groups as described herein.
Animals were monitored for food and water consumption every day, and their body weights and tumor volumes were measured twice per week. Tumor volumes were measured with a digital caliper and were determined by using the following formula: ½ length×width^2. Blood samples were collected via cardiac puncture and processed further for ALT and AST measurements. The animals were then immediately euthanized by carbon dioxide. Tumors and vital organs (spleen, kidney, liver and lung) were collected and fixed in 10% buffered formalin at 4° C. overnight before being processed for paraffin embedding. The paraffin-embedded blocks were then cut into 4-5 μm thick sections. Each section of tumors and organs was stained with hematoxylin and eosin (H&E).

[7] = system: KB-C-1; test: SRB-based cytotoxicity assay; type: cell-based; settings: Homo sapiens, KBC-1; KB-C-1, multidrug naïve
Experimental: (§4) 1845B5 and MCF-10A non-cancer breast cell lines were cultured in DME/F12 medium supplemented with 10% fetal bovine serum, antibiotics and growth factors. […] The human small cell lung carcinoma H69 cell line and its multidrug-resistant MRP1-overexpressing isogenic H69AR cell line were purchased from ATCC. […] H69 cells grow as large multi-cell aggregates, making it difficult to accurately count cell numbers. […] The IL-6 dependent bortezomib-resistant ANBL6-BR cell line was further supplemented with 1 ng/ml of IL-6. The MCF10AT1 and MCF10CA1a cell lines are isogenic to the MCF10A cell line, and obtained from Dr. Valerie Weaver at the Center for Bioengineering and Tissue Regeneration, UCSF, CA, USA. […] The drug-resistant cells were cultured in the absence of drug for at least one passage before carrying out experiments. All cells were maintained in a humidified incubator at 37° C. […] Cell line authentication was performed using short tandem repeat (STR) profiling. […] Some wells were treated with 100 μl of 10% trichloroacetic acid (TCA) as a negative control and sham (medium with dimethyl sulfoxide; DMSO) treated cells were used as a positive control. […] TCA was removed and cells were washed with cold tap water, and plate was air-dried, followed by addition of 50 μl of 0.4% SRB staining solution to each well. After 30 minutes incubation, SRB staining solution was removed. Cells were washed with 1% acetic acid solution, and then washed with tap water to remove unbound staining solution, followed by air-drying. 200 μl of 10 mM (pH10.5) trizma base buffer was added to each well to solubilise macromolecules. […] Cell growth (inhibition) was calculated by the following formula: % cells proliferation=[(AT-CT)/(ST-CT)]×100 wherein AT=absorbance of treated cells, CT=absorbance of negative control cells, and ST=absorbance of sham treated cells. […] CI values were determined from four independent experiments.

[8] = system: KB-C-2; test: SRB-based cytotoxicity assay, single and combination with paclitaxel; type: cell-based, human; settings: KB-C-2 versus KB-C-1
Experimental: as §4

[9] = system: H69AR; test: SRB-based cytotoxicity assay; type: cell-based, human; settings: H69AR versus SW-1271
Experimental: as §4

SMILES | IC50 [1] [nM] | IC50 [2] [nM] | IC50 [3] [nM] | IC50 [4] [nM] | IC50 [5] [nM] | tumor size (volume) ([6]; Day 0) [mm^3] | tumor size (volume) ([6]; Day 6) [mm^3] | tumor size (volume) ([6]; Day 14) [mm^3] | tumor size (volume) ([6]; Day 17) [mm^3] | tumor size (volume) ([6]; Day 20) [mm^3] | tumor size (volume) ([6]; Day 24) [mm^3] | tumor size (volume) ([6]; Day 27) [mm^3] | tumor size (volume) ([6]; Day 30) [mm^3] | IC50 [7] [nM] | Resistance (fold) [8] [fold] | Resistance (fold) [9] [fold]
COc1ccc2cc(/C=C/C(=O)c3ccccc3OC)c(=O)[nH]c2c1 [CTR-19, (E)-7-Methoxy-3-(3-(2-methoxyphenyl)-3-oxoprop-1-enyl) quinolin-2(1H)-one] | 1930 | 5110 | 1910 | 3940 | 950 ± 650 | 92.51 | 84.79 | 99.68 | 92.27 | 115.39 | 124.76 | 143.62 | 200.77 | – | – | –
CC[C@]1(O)C[C@@H]2CN(CCc3c([nH]c4ccccc34)[C@@](C(=O)OC)(c3cc4c(cc3OC)N(C)[C@H]3[C@@](O)(C(=O)OC)[C@H](OC(C)=O)[C@]5(CC)C=CCN6CC[C@]43[C@@H]65)C2)C1 [Vinblastine, reference compound] | – | – | – | – | – | – | – | – | – | – | – | – | – | 0.61 ± 0.09 | 15.20 | 5.82
COc1ccccc1C(=O)/C=C/c1cc2cc(C)ccc2[nH]c1=O [CTR-18, (E)-3-(3-(2-Methoxyphenyl)-3-oxoprop-1-enyl)-6-methylquinolin-2(1H)-one] | 120 | 930 | 80 | 3890 | 210 ± 20 | 92.51 | 111.09 | 138.10 | 145.48 | 166.84 | 143.78 | 141.52 | 253.37 | – | – | –
